According to publication PMC10396955, “2-Oxabicyclo[2.1.1]hexanes as saturated bioisosteres of the ortho-substituted phenyl ring” (Nature Chemistry, 2023):
In brackets after ≈: the same amount, converted by molar mass.

System: Fusarium oxysporum
Test: Antifungal activity, agar well diffusion method
Format: cell-based
Settings: Fusarium oxysporum; 0.0039 mg/mL; zones st (static growth); read-out: Diameter of inhibition zone
Source text: (§1) The agar well diffusion method is widely used to evaluate the antimicrobial activity of different substances (S. Magaldi, S. Mata-Essayag, C. Hartung de Capriles, et al. Well diffusion for antifungal susceptibility testing, Int. J. Infect. Dis. 8, 2004 , 39–45; C. Valgas, S. M. De Souza, E. F. A. Smânia, et al. Screening methods to determine antibacterial activity of natural products. Braz. J. Microbiol. 38 , 2007 , 369–380). Similarly to the procedure used in a disk-diffusion method, the agar plate surface is inoculated by spreading a volume of the microbial inoculum over the entire agar surface. Then, a hole with a diameter of 6 to 8 mm is punched aseptically with a sterile cork borer or a tip, and a volume […] of the antimicrobial agent or extract solution at desired concentration is introduced into the well. Then, agar plates are incubated under suitable conditions depending upon the test microorganism. The antimicrobial agent diffuses in the agar medium and inhibits the growth of the microbial strain tested (M. Balouiri, M. Sadiki, S. K. Ibnsouda. Methods for in vitro evaluating […]
(§2) Agar well diffusion method is a qualitative method used to measure the ability of compounds to inhibit microbial growth. This test is a quick and easy way to measure and compare levels of inhibitory […]
(§3) Antifungal activity of the synthetic compounds using agar well diffusion The compunds were tested towards plant pathogens Fusarium oxysporum Schltdl. and F. verticillioides (Sacc.) Nirenberg isolated from crops. Antifungal activity of the synthetic compounds was evaluated with using of an agar well diffusion method based on a disk diffusion assay for testing filamentous fungi (CLSI M51-A) [CLSI. Method for Antifungal Disk Diffusion Susceptibility Testing of Nondermatophyte Filamentous Fungi; Approved Guideline.CLSI document M51-A. Wayne, PA:
(§4) Clinical and Laboratory Standards Institute; 2010. This method is standardized for Altenaria , Aspergillus, Bipolaris , Fusarium , order Mucorales etc.
(§5) Preparation of synthetic compounds for mycological assay
(§6) Solutions of fungicides and its analogs were diluted in dimethyl sulfoxide (DMSO) to produce the […]
(§7) Antifungal well diffusion method
(§8) The fungal strains were cultured on potato dextrose agar slants (PDA, Eur. Pharm.) and incubated at 25 °C for 5 days. Sterile distilled water was used to cover and resuspend the colonies. Suspension of […]
(§9) conidia was adjusted to inoculums 5×10^6 conidia/mL. The suspension was further diluted in warm PDA 1:10 to obtain final working inoculums 5×10^5 conidia/mL.
(§10) Polypropylene cylinders (d, 5 mm) were placed on the surface and wells punched in the medium were used as reservoir of the test substances in different concentrations. 40 µl of solutions containing 0.0039-1.0 mg/mL of a test compound was added into the wells.
(§11) Each compound was tested in triplicate at different concentrations. Growth control was a well with 40 µl of DMSO, which was used for test components dilution.
(§12) Plates incubated at 25 °C for 72 h. The test compounds at known concentration into contact with an inoculated medium then exerts a growth-inhibiting effect then a clear zone (the zone of inhibition) appears around the test product. Diameter of a clear zone around the well is measured at the end of the incubation period in millimeters. If the fungal strain is susceptible to the antifungal agent, then a zone of inhibition appears on the agar plate. If it is resistant to the test compound, then no zone is evident.
(§13) The size of the zone of inhibition is usually related to the level of antifungal activity present in the […]
(§14) The growth rate of Fusarium oxysporum and F. verticillioides for each well was determined visually and compared with the growth of control.
(§15) As shown in the table the antifungal activity of the 6 compounds, - Fluxapyroxad, compound 28, compound 29, Boscalid, compound 30, compound 31, - were tested against plant pathogenic fungal […]
(§16) toward Fusarium oxysporum (Table S5, Figure S16). Inhibition zones of all compounds characterized […]

| SMILES | zone of inhibition at 3.9 µg/mL [mm] |
| --- | --- |
| O=C(Nc1ccccc1-c1ccc(Cl)cc1)c1cccnc1Cl [Boscalid, reference compound] | 9 ± 0.6 |

Same assay, conditions: Fusarium oxysporum; 0.0078 mg/mL; zones st (static growth); read-out: Diameter of inhibition zone

| SMILES | zone of inhibition at […] [mm] |
| --- | --- |
| O=C(Nc1ccccc1-c1ccc(Cl)cc1)c1cccnc1Cl [Boscalid, reference compound] | 9 ± 1.7 |

Same assay, conditions: Fusarium oxysporum; 0.0156 mg/mL; zones st (static growth); read-out: Diameter of inhibition zone

| SMILES | zone of inhibition at 15.6 µg/mL [mm] |
| --- | --- |
| O=C(Nc1ccccc1-c1ccc(Cl)cc1)c1cccnc1Cl [Boscalid, reference compound] | 11 ± 1.5 |

Same assay, conditions: Fusarium oxysporum; 0.03125 mg/mL; zones st (static growth); read-out: Diameter of inhibition zone

| SMILES | zone of inhibition at 31.25 µg/mL [mm] |
| --- | --- |
| O=C(Nc1ccccc1-c1ccc(Cl)cc1)c1cccnc1Cl [Boscalid, reference compound] | 12 ± 1.7 |

Same assay, conditions: Fusarium oxysporum; 0.0625 mg/mL; zones st (static growth); read-out: Diameter of inhibition zone

| SMILES | zone of inhibition at 62.5 µg/mL [mm] |
| --- | --- |
| O=C(Nc1ccccc1-c1ccc(Cl)cc1)c1cccnc1Cl [Boscalid, reference compound] | 24 ± 1 |

Same assay, conditions: Fusarium oxysporum; 0.125 mg/mL; zones st (static growth); read-out: Diameter of inhibition zone

| SMILES | zone of inhibition at 125 µg/mL [mm] |
| --- | --- |
| O=C(Nc1ccccc1-c1ccc(Cl)cc1)c1cccnc1Cl [Boscalid, reference compound] | 25 |

Same assay, conditions: Fusarium oxysporum; 0.25 mg/mL; zones st (static growth); read-out: Diameter of inhibition zone

| SMILES | zone of inhibition at 250 µg/mL [mm] |
| --- | --- |
| O=C(Nc1ccccc1-c1ccc(Cl)cc1)c1cccnc1Cl [Boscalid, reference compound] | 30 |

Same assay, conditions: Fusarium oxysporum; 0.5 mg/mL; zones st (static growth); read-out: Diameter of inhibition zone

| SMILES | zone of inhibition at 500 µg/mL [mm] |
| --- | --- |
| O=C(Nc1ccccc1-c1ccc(Cl)cc1)c1cccnc1Cl [Boscalid, reference compound] | 31 ± 1.2 |

Same assay, conditions: Fusarium oxysporum; 1 mg/mL; 40 µl per well, 25 °C, 72 h; zones st (static growth); read-out: Diameter of inhibition zone

| SMILES | zone of inhibition at 1000 µg/mL [mm] |
| --- | --- |
| O=C(Nc1ccccc1-c1ccc(Cl)cc1)c1cccnc1Cl [Boscalid, reference compound] | 39 ± 0.6 |

Same assay, conditions: agar well diffusion; tested 0.0039-1.0 mg/mL

| SMILES | lowest inhibition concentration [mg/mL] |
| --- | --- |
| O=C(Nc1ccccc1-c1ccc(Cl)cc1)c1cccnc1Cl [Boscalid, reference compound] | 0.0039 |

System: Fusarium verticillioides
Test: Antifungal activity, agar well diffusion method
Format: cell-based
Settings: Fusarium verticillioides; 0.0039 mg/mL; 0 = absence of antifungal activity; read-out: Diameter of inhibition zone
Source text: as §1, §2, §3, §4, §5, §6, §7, §8, §9, §10, §11, §12, §13, §14, §15, §16

| SMILES | zone of inhibition at 3.9 µg/mL [mm] |
| --- | --- |
| O=C(Nc1ccccc1-c1ccc(Cl)cc1)c1cccnc1Cl [Boscalid, reference compound] | 0 |

Same assay, conditions: Fusarium verticillioides; 0.0078 mg/mL; 0 = absence of antifungal activity; read-out: Diameter of inhibition zone

| SMILES | zone of inhibition at […] [mm] |
| --- | --- |
| O=C(Nc1ccccc1-c1ccc(Cl)cc1)c1cccnc1Cl [Boscalid, reference compound] | 11 ± 1 |

Same assay, conditions: Fusarium verticillioides; 0.0156 mg/mL; 0 = absence of antifungal activity; read-out: Diameter of inhibition zone

| SMILES | zone of inhibition at 15.6 µg/mL [mm] |
| --- | --- |
| O=C(Nc1ccccc1-c1ccc(Cl)cc1)c1cccnc1Cl [Boscalid, reference compound] | 24 ± 1.5 |

Same assay, conditions: Fusarium verticillioides; 0.03125 mg/mL; 0 = absence of antifungal activity; read-out: Diameter of inhibition zone

| SMILES | zone of inhibition at 31.25 µg/mL [mm] |
| --- | --- |
| O=C(Nc1ccccc1-c1ccc(Cl)cc1)c1cccnc1Cl [Boscalid, reference compound] | 28 ± 1 |

Same assay, conditions: Fusarium verticillioides; 0.0625 mg/mL; 0 = absence of antifungal activity; read-out: Diameter of inhibition zone

| SMILES | zone of inhibition at 62.5 µg/mL [mm] |
| --- | --- |
| O=C(Nc1ccccc1-c1ccc(Cl)cc1)c1cccnc1Cl [Boscalid, reference compound] | 30 ± 0.6 |

Same assay, conditions: Fusarium verticillioides; 0.25 mg/mL; 0 = absence of antifungal activity; read-out: Diameter of inhibition zone

| SMILES | zone of inhibition at 250 µg/mL [mm] |
| --- | --- |
| O=C(Nc1ccccc1-c1ccc(Cl)cc1)c1cccnc1Cl [Boscalid, reference compound] | 39 ± 0.6 |

Same assay, conditions: Fusarium verticillioides; 0.5 mg/mL; 0 = absence of antifungal activity; read-out: Diameter of inhibition zone

| SMILES | zone of inhibition at 500 µg/mL [mm] |
| --- | --- |
| O=C(Nc1ccccc1-c1ccc(Cl)cc1)c1cccnc1Cl [Boscalid, reference compound] | 40 ± 0.6 |

Same assay, conditions: Fusarium verticillioides; 1 mg/mL; 40 µl per well, 25 °C, 72 h; 0 = absence of antifungal activity; read-out: Diameter of inhibition zone

| SMILES | zone of inhibition at 1000 µg/mL [mm] |
| --- | --- |
| O=C(Nc1ccccc1-c1ccc(Cl)cc1)c1cccnc1Cl [Boscalid, reference compound] | 44 ± 1.2 |

Same assay, conditions: agar well diffusion; tested 0.0039-1.0 mg/mL

| SMILES | lowest inhibition concentration [mg/mL] |
| --- | --- |
| O=C(Nc1ccccc1-c1ccc(Cl)cc1)c1cccnc1Cl [Boscalid, reference compound] | 0.0078 |

System: not listed separately
Test: Kinetic solubility in phosphate-buffered saline, pH 7.4
Format: physicochemical
Settings: 25 °C, pH 7.4, aqueous buffer, kinetic from dmso stock, PBS solubility, pH 7.4, Incubation 1
Method: Analysis of Aqueous Solubility […]
compound (Ondansetron) were assessed for kinetic solubility in phosphate-buffered saline, pH […]
Phosphate buffered saline, pH 7.4 (Sigma-Aldrich, USA; Cat #P3813) […]
MultiScreen HTS 96 Well Filter Plates (Millipore, Ireland; Cat # MSGVS2210) […]
Matrix Multichannel Electronic Pipette 2-125 µL, 5-250 µL, 15-1250 µL (Thermo Scientific, […]
Vacuum pump (Millipore, USA; Model # XX5500000)
The measurements were performed using SpectraMax Plus reader in UV-Vis mode. Acquisition and analysis of the data were performed using SoftMax Pro v.5.4 (Molecular Devices) and Excel […]
Kinetic solubility assay was performed according to the Enamine’s aqueous solubility SOP.
Briefly, using a 20 mM stock solution of the compound in 100% DMSO dilutions were prepared to a theoretical concentration of 400 μM in duplicates in phosphate-buffered saline pH 7.4 […]
for two hours and then filtered through HTS filter plates using a vacuum manifold. The filtrates of test compounds were diluted 2-fold with acetonitrile with 2% DMSO before measuring.
In parallel, compound dilutions in acetonitrile/PBS (1:1) were prepared to theoretical […]
DMSO to generate calibration curves. Ondansetron was used as reference compound to control proper assay performance. 200 μl of each sample was transferred to 96-well plate and measured in 200-550 nm range with 5 nm step.
The concentrations of compounds in PBS filtrate are calculated using a dedicated Microsoft Excel calculation script. Proper absorbance wavelengths for calculations are selected for each compound manually based on absorbance maximums (absolute absorbance unit values for the minimum and maximum concentration points within 0 – 3 OD range). Each of the final datasets is additionally visually evaluated by the operator and goodness of fit (R2) is calculated for each calibration curve. The effective range of this assay is approximately 2-400 μM and the […]

| SMILES | solubility at 2 h [µM] |
| --- | --- |
| O=C(Nc1ccccc1-c1ccc(Cl)cc1)c1cccnc1Cl [Boscalid, reference compound] | 9 (≈ 3.09 µg/mL) |

Same assay, conditions: 25 °C, pH 7.4, aqueous buffer, kinetic from dmso stock, PBS solubility, pH 7.4, Incubation 2

| SMILES | solubility at 2 h [µM] |
| --- | --- |
| O=C(Nc1ccccc1-c1ccc(Cl)cc1)c1cccnc1Cl [Boscalid, reference compound] | 13 (≈ 4.46 µg/mL) |

Same assay, conditions: 25 °C, pH 7.4, aqueous buffer, kinetic from dmso stock, Solubility

| SMILES | solubility at 2 h [µM] |
| --- | --- |
| O=C(Nc1ccccc1-c1ccc(Cl)cc1)c1cccnc1Cl [Boscalid, reference compound] | 11 (≈ 3.78 µg/mL) |
